From publication PMC4635571 (Journal of immunology (Baltimore, Md. : 1950), 2015)

Experiments:
polarized CD4+ T cells [1] = assay: Transwell cell migration assay; type: cell-based, mouse; conditions: 3hr, cells cultured with 25 or 50nM PRN694
naïve CD4+ T cells = type: cell-based, mouse
[2] = system: Human peripheral blood mononuclear cells (PBMC); assay: Cytokine production by human PBMC; type: cell-based
phosphorylated-PLCγ1 = assay: In vivo target engagement assay; parameters: species or system mouse; conditions: 40 mg/kg oral, 2hr or 6hr post-treatment, ex vivo anti-CD3/CD28 stimulation
ITK = conditions: versus e.g. BMS-509744 and BMS-488516; Fig. 1B
Rag2−/− hosts = assay: CD4+ CD45RBhi T cell adoptive transfer model of colitis; type: in vivo
CD-1 mice = assay: Anti-CD3-induced cytokines in mouse plasma; type: in vivo; conditions: 20 mg/kg i.p., anti-CD3 1hr or 6hr later, plasma 2hr post-anti-CD3
[3] = system: HCT116 colorectal carcinoma cell line; assay: Inhibition of proliferation of HCT116 cells; type: cell-based; conditions: read-out: IC50 of inhibition of proliferation; HCT116, general cytotoxicity
polarized CD4+ T cells [4] = assay: P-selectin; type: cell-based, mouse

C=CC(=O)N1CCC[C@@H]1Cn1c(NC(=O)c2ccc(C(F)F)s2)nc2cc(CN[C@@H](C)C(C)(C)C)ccc21 [PRN694]
TH17 migration to CCL20 (polarized CD4+ T cells [1]; CCL20 100 ng/mL): reduced approximately two-fold
TH1 migration to CXCL11 (polarized CD4+ T cells [1]; CXCL11 100 ng/mL): inhibited
inhibition of IFN-γ production by TH1 cells (naïve CD4+ T cells; 25nM PRN694, TH1-polarizing conditions, 72hr, PMA/Ionomycin restimulation 5hr): > 50%
expression levels of transcription factors (T-bet, GATA-3, RORγt) (naïve CD4+ T cells; TH1, TH2, TH17 polarization with inhibitor): decreased
IL-2 production by in vitro polarized CD4+ T cells (naïve CD4+ T cells; all three lineages of T helper cells, 72hr): inhibited
inhibition of IL-4 production by TH2 cells (naïve CD4+ T cells; any of the doses tested, TH2-polarizing conditions, 72hr): < 50%
increase in IFN-γ, IL-6 and IL-2 induced by anti-CD3/CD28 ([2]; 20nM PRN694, 18hr): strongly inhibited
increase in IFN-γ, IL-6 and IL-2 induced by anti-CD3/CD28 ([2]; 5.0μM PRN694, 18hr): completely blocked
ability to inhibit IL-2 production on thapsigargin stimulation ([2]; PBMC stimulated with thapsigargin 10 μM, 18hr): strongly impaired
phosphorylation of PLCγ1 (phosphorylated-PLCγ1): completely blocked
fold more potent in inhibiting ITK than previously-described ITK inhibitors (ITK): 63- to 320 fold
toxicity during long-term in vivo administration (Rag2−/− hosts; 7 week dosing time frame): no apparent toxicity
CD4+ T cell proportions in intestinal epithelium and LP versus vehicle (Rag2−/− hosts; 7 weeks post-transfer): significantly less
expression of integrin α4β7 and CCR6 on intestinal epithelial CD4+ T cells (Rag2−/− hosts; 7 weeks post-transfer): reduced
histological analysis of the colonic epithelium (Rag2−/− hosts; 7 weeks post-transfer, H&E): reduced inflammation
proportions of cells capable of producing IL-2 (Rag2−/− hosts; 7 weeks post-transfer, PMA/Ionomycin): reduced proportions
reduced colon length (Rag2−/− hosts; 7 weeks post-transfer, oral dosing): prevented
proportions of CD4+ T cells expressing Foxp3 (Rag2−/− hosts; all organs examined, 7 weeks post-transfer): significantly reduced
behavioral indications of toxicity (Rag2−/− hosts; long-term in vivo administration): no behavioral indications of drug-mediated toxicity
proportions of CD4+ T cells producing IFN-γ (Rag2−/− hosts; mesenteric LN, IEL and LP, 7 weeks post-transfer, PMA/Ionomycin): markedly reduced
weight change (disease progression) (Rag2−/− hosts; oral 40 mg/kg once a day or 20 mg/kg twice a day, 7 weeks): no weight loss
increase in plasma IFN-γ, IL-6 and IL-2 induced by anti-CD3 (CD-1 mice): inhibited
IC50 [3]: 10 µM
P-selectin binding of TH1 and TH17 cells (polarized CD4+ T cells [4]; differentiated 72hr with 25 or 50nM PRN694): reduced P-selectin binding
P-selectin binding of TH2 cells (polarized CD4+ T cells [4]; only visible in the higher dose of inhibitor (50nM)): only a modest reduction
